Assay results: ChEMBL document CHEMBL5303573, “Mapping human microbiome drug metabolism by gut bacteria and their genes” (Nature, 2019)

Experiments:
[1] = limosilactobacillus reuteri cf48-3a, 12 h, 2 µM
Description: The drug is tested on Lactobacillus reuteri CF48-3A strain: BEI HM-102 for biotransformation. The drug concentrations were measured before and after a 12-h incubation by liquid-chromatography-coupled mass spectrometry (LC–MS)

[2] = The drug is tested on Bifidobacterium longum subsp. Infantis strain: CCUG52486 for biotransformation. The drug concentrations were measured before and after a 12-h incubation by liquid-chromatography-coupled mass spectrometry (LC–MS); conditions: 2 µM
[3] = The drug is tested on Anaerococcus hydrogenalis strain: DSM7454 for biotransformation. The drug concentrations were measured before and after a 12-h incubation by liquid-chromatography-coupled mass spectrometry (LC–MS); conditions: 2 µM
[4] = The drug is tested on Collinsella intestinalis strain: DSM13280 for biotransformation. The drug concentrations were measured before and after a 12-h incubation by liquid-chromatography-coupled mass spectrometry (LC–MS); conditions: 2 µM
[5] = The drug is tested on Eggerthella lenta strain: ATCC25559 for biotransformation. The drug concentrations were measured before and after a 12-h incubation by liquid-chromatography-coupled mass spectrometry (LC–MS); conditions: 2 µM
[6] = The drug is tested on Ruminococcus torques strain: ATCC27756 for biotransformation. The drug concentrations were measured before and after a 12-h incubation by liquid-chromatography-coupled mass spectrometry (LC–MS); type: ADME; design: dose 2 uM, timepoint 0 vs 12 hours; conditions: 2 µM
[7] = The drug is tested on Blautia luti strain: DSM14534 for biotransformation. The drug concentrations were measured before and after a 12-h incubation by liquid-chromatography-coupled mass spectrometry (LC–MS); type: ADME; design: dose 2 uM, timepoint 0 vs 12 hours; conditions: 2 µM
[8] = The drug is tested on Eubacterium rectale strain: ATCC33656 for biotransformation. The drug concentrations were measured before and after a 12-h incubation by liquid-chromatography-coupled mass spectrometry (LC–MS); conditions: agathobacter rectalis, 2 µM
[9] = The drug is tested on Parabacteroides merdae strain: ATCC43184 for biotransformation. The drug concentrations were measured before and after a 12-h incubation by liquid-chromatography-coupled mass spectrometry (LC–MS); conditions: 2 µM
[10] = segatella copri, 12 h, 2 µM
Description: The drug is tested on Prevotella copri strain: DSM18205 for biotransformation. The drug concentrations were measured before and after a 12-h incubation by liquid-chromatography-coupled mass spectrometry (LC–MS)

[11] = The drug is tested on Clostridium asparagiforme strain: DSM15981 for biotransformation. The drug concentrations were measured before and after a 12-h incubation by liquid-chromatography-coupled mass spectrometry (LC–MS); type: ADME; design: dose 2 uM, timepoint 0 vs 12 hours; conditions: enterocloster asparagiformis, 2 µM
[12] = bacteroides thetaiotaomicron, 12 h, 2 µM
Description: The drug is tested on Bacteroides thetaiotaomicron strain: 3731 for biotransformation. The drug concentrations were measured before and after a 12-h incubation by liquid-chromatography-coupled mass spectrometry (LC–MS)

[13] = The drug is tested on Bacteroides vulgatus strain: ATCC8482 for biotransformation. The drug concentrations were measured before and after a 12-h incubation by liquid-chromatography-coupled mass spectrometry (LC–MS); conditions: phocaeicola vulgatus, 2 µM
[14] = bacteroides fragilis, 12 h, 2 µM
Description: The drug is tested on Bacteroides fragilis strain: DS-208 for biotransformation. The drug concentrations were measured before and after a 12-h incubation by liquid-chromatography-coupled mass spectrometry (LC–MS)

[15] = The drug is tested on Escherichia coli strain: BW25113 for biotransformation. The drug concentrations were measured before and after a 12-h incubation by liquid-chromatography-coupled mass spectrometry (LC–MS); conditions: 2 µM
[16] = bacteroides intestinalis, 12 h, 2 µM
Description: The drug is tested on Bacteroides intestinalis strain: DSM17393 for biotransformation. The drug concentrations were measured before and after a 12-h incubation by liquid-chromatography-coupled mass spectrometry (LC–MS)

[17] = The drug is tested on Bacteroides cellulosilyticus strain: DSM14838 for biotransformation. The drug concentrations were measured before and after a 12-h incubation by liquid-chromatography-coupled mass spectrometry (LC–MS); conditions: 2 µM
[18] = The drug is tested on Clostridium sporogenes strain: ATCC15579 for biotransformation. The drug concentrations were measured before and after a 12-h incubation by liquid-chromatography-coupled mass spectrometry (LC–MS); conditions: 2 µM
[19] = The drug is tested on Odoribacter splanchnicus strain: fecal isolate for biotransformation. The drug concentrations were measured before and after a 12-h incubation by liquid-chromatography-coupled mass spectrometry (LC–MS); conditions: 2 µM
[20] = The drug is tested on Eubacterium ventriosum strain: ATCC27560 for biotransformation. The drug concentrations were measured before and after a 12-h incubation by liquid-chromatography-coupled mass spectrometry (LC–MS); type: ADME; design: dose 2 uM, timepoint 0 vs 12 hours; conditions: 2 µM

Structure (SMILES) | Bacterial Biotransformation [1] | Bacterial Biotransformation [2] | Bacterial Biotransformation [3] | Bacterial Biotransformation [4] | Bacterial Biotransformation [5] | Bacterial Biotransformation [6] | Bacterial Biotransformation [7] | Bacterial Biotransformation [8] | Bacterial Biotransformation [9] | Bacterial Biotransformation [10] | Bacterial Biotransformation [11] | Bacterial Biotransformation [12] | Bacterial Biotransformation [13] | Bacterial Biotransformation [14] | Bacterial Biotransformation [15] | Bacterial Biotransformation [16] | Bacterial Biotransformation [17] | Bacterial Biotransformation [18] | Bacterial Biotransformation [19] | Bacterial Biotransformation [20]
COC(=O)[C@H]1[C@H]2C[C@@H]3c4[nH]c5cc(OC)ccc5c4CCN3C[C@H]2C[C@@H](OC(=O)c2cc(OC)c(OC)c(OC)c2)[C@@H]1OC [RESERPINE] | Compound NOT metabolized | Compound NOT metabolized | Compound NOT metabolized | Compound NOT metabolized | Compound NOT metabolized | Compound NOT metabolized | Compound NOT metabolized | Compound NOT metabolized | Compound NOT metabolized | Compound NOT metabolized | Compound NOT metabolized | Compound NOT metabolized | Compound NOT metabolized | Compound NOT metabolized | Compound NOT metabolized | Compound NOT metabolized | Compound NOT metabolized | Compound NOT metabolized | – | –
CC(=O)O[C@H]1C(=O)[C@@]2(C)[C@H]([C@H](OC(=O)c3ccccc3)[C@]3(O)C[C@H](OC(=O)[C@H](O)[C@@H](NC(=O)c4ccccc4)c4ccccc4)C(C)=C1C3(C)C)[C@]1(OC(C)=O)CO[C@@H]1C[C@@H]2O [PACLITAXEL] | Compound NOT metabolized | Compound NOT metabolized | Compound NOT metabolized | Compound NOT metabolized | Compound NOT metabolized | Compound NOT metabolized | Compound NOT metabolized | Compound NOT metabolized | Compound NOT metabolized | Compound NOT metabolized | Compound NOT metabolized | Compound NOT metabolized | – | Compound metabolized | Compound NOT metabolized | Compound NOT metabolized | Compound NOT metabolized | Compound NOT metabolized | Compound metabolized | –
CN(C)C(=O)C(CCN1CCC(O)(c2ccc(Cl)cc2)CC1)(c1ccccc1)c1ccccc1 [LOPERAMIDE] | Compound NOT metabolized | – | Compound NOT metabolized | – | Compound NOT metabolized | Compound NOT metabolized | Compound NOT metabolized | Compound NOT metabolized | – | – | Compound NOT metabolized | Compound NOT metabolized | Compound metabolized | – | Compound metabolized | – | Compound NOT metabolized | Compound metabolized | Compound metabolized | Compound NOT metabolized
